Here are results for three molecules from patent US9464291B2, “Methods and compositions for the treatment of cancer” (University of South Alabama, priority 2012, dated 2016).

Values joined by “and” are separate entries in the source; they are usually repeats but may differ in a detail not shown here. Identical values can stand only once. “Also recorded” adds a separate entry of the source. Like-named read-outs stand apart in the source and are kept apart here.

Series [1] deals with RAW264.7 cells. As to the kind of experiment: Osteoclast differentiation, TRAP assay, RAW264.7. The note with it: DM supplemented with SHH (100 nM) or OPN (100 ng/ml) vs DM alone. The format is cell-based, murine. The method, then:
Cell lines—Human metastatic breast cancer cells, MDA-MB-231, were cultured in Dulbecco's Modified Eagle's Medium (DMEM/F12; Invitrogen, Carlsbad, Calif.), supplemented with 2 mM L-glutamine, 1 mM sodium pyruvate, 0.02 mM non-essential amino acids, 5% fetal bovine serum, FBS (Atlanta Biologicals, Norcross, Ga.), without antibiotics or antimycotics (cDME/F12). SUM1315 and SUM159 cells (DiMeo, T. A., et al. (2009) Cancer Res 69, 5364-5373) (Asterand, Detroit, Mich.) were cultured in DMEM/F12 supplemented with […] insulin, 5% FBS (Atlanta Biologicals) and either 10 ng/ml EGF or 1 ng/ml hydrocortisone, without antibiotics or antimycotics. The SUM1315 cells are derived from a metastasis in a patient with infiltrating ductal carcinoma; SUM159 cells were derived from a primary breast tumor with metaplastic ccarcinoma. RAW264.7 (ATCC, TIB 71) cells, a murine pre-osteoclastic line capable of differentiation and mineralization in culture (in presence of RANKL and MCSF), were grown in DMEM with L-glutamine (ATCC, 30-2002) supplemented with 10% FBS. A 2× differentiation medium (DM) was formulated for the RAW 264.7 cells comprising RAW264.7 growth medium supplemented with 20% FBS, RANKL (100 ng/ml) and M-CSF (40 ng/ml) (Matsubara, T., et al. J Bone Miner Res 25, 1068-1076). Conditioned media was harvested from breast cancer cells and mixed in a 1:1 ratio with double strength differentiation medium to assess the effect on osteoclast differentiation. 1×DM was used as control or wherever SHH (R & D Systems, Minneapolis, Minn.) or OPN (R & D Systems) was used alone. The medium on the RAW264.7 cells was replenished every 48 hours. In order to assess the effect of secreted Hh ligands, the neutralizing 5E1 antibody was used (Developmental Studies Hybridoma Bank, at the University of Iowa, Iowa). The amount of 5E1 antibody used for the studies was determined following titration of the antibody with respect to its effects on osteoclast differentiation. Medium was supplemented with 5E1 (2.5 μg/ml) and was changed on alternate days until the end of the experiment. The effect of OPN on osteoclast activity was assessed by transfecting an OPN shRNA-expressing construct on day 6 post-induction of differentiation. Fresh DM was added the following day and cells were allowed to grow for another 12 hours before termination of experiment. GLI1 expression was silenced in the SUM1315 cells using shRNA targeting GLI1 into pSuperior. gfp+neo (Oligoengine, Wash., USA). […]
Osteoclast differentiation and activity assays—Tartarate-resistant acid phosphatase (TRAP) assay was conducted for RAW 264.7 following the manufacturer's protocol (Sigma, St. Louis, Mo.). […] The percentage of area resorbed was calculated using the NIS-Elements BR. […]

Series [2] concerns RAW264.7 cells. The series is described as follows: Osteoclast resorption activity, OAAS plates. The format is cell-based, murine. To be noted: DM supplemented with SHH (100 nM) or OPN (100 ng/ml). The protocol: Osteoclast differentiation and activity assays—Tartarate-resistant acid phosphatase (TRAP) assay was conducted for RAW 264.7 following the manufacturer's protocol (Sigma, St. Louis, Mo.). This assay was indicative of the extent of differentiation. OAAS plates (Osteogenic Core Technologies, Choongnam, Republic of Korea) were utilized to measure osteoclastic activity. RAW 264.7 cells (25×103) were inoculated in 48-well plates. Cells were treated with serum-free conditioned media from breast cancer cells or 100 nM SHH or 100 ng/ml OPN on the following day. Media was changed every two days and the experiments were terminated either on day 6 (day 7 for knockdown experiments, with transfections being done on the sixth day). At the completion, cells were detached with 5% sodium hypochlorite and the wells were observed under a Nikon Eclipse TS 100 microscope at 10× magnification. […] The percentage of area resorbed was calculated using the NIS-Elements BR. 3.1 software.

The next series concerns Gli1. As to the kind of experiment: GLI1 silencing by shRNA constructs in MDA-MB-435 cells, Western blot. Type of series: cell-based, human. The method, then:
To evaluate the functional effects of active Hedgehog signaling stable cell lines that were knocked down for GLI1 expression by RNA interference were generated. The efficacy of three shRNA constructs for silencing GLI1 expression was assessed.
Generation of Stable Transfectants—Endogenous GLI1 from MDA-MB-435 cells was silenced using shRNAs (short hairpin RNA) cloned into pSuperior.neo+gfp plasmid (OligoEngine, Seattle, Wash.) (TABLE 1). Introduction of double-stranded RNA has proven to be a powerful tool to suppress gene expression through a process known as RNA interference (P. A. Sharp, Genes Dev. 13, 139 (1999)). However, in some mammalian cells this can provoke a strong cytotoxic response (T. Hunter, T. Hunt, R. J. Jackson, H. D. Robertson, J. Biol. Chem. 250, 409 (1975)). This non-specific effect can be circumvented by use of synthetic short [21- to 22-nucleotide (nt)] interfering RNAs (siRNAs), which can mediate strong and specific suppression of gene expression (S. M. Elbashir et al., Nature 411, 494 (2001)). shRNAs included a target sequence sense strand, a short hairpin, and a target sequence antisense strand.
Western Blotting Analysis—Whole cell lysates were collected in Nonidet P-40 buffer (150 mM NaCl, 50 mM Tris, 1% Nonidet P-40). […] Secreted OPN was assessed by loading an equal quantity of protein from the serum-free conditioned medium. […]
On the technique in general: A western blot detects proteins with antibodies after separation by electrophoresis.

The subject of series [3] is ERCC1, XPD, XRCC1. The series is described as follows: ERCC1, XPD, XRCC1 mRNA / protein levels in A2780-CP70 cells. Type of series: cell-based, human.
For series [4], the system named is A2780-CP70 cells. As to the kind of experiment: Cisplatin cell growth / cell killing curves in A2780-CP70 cells. The format is cell-based, human. To be noted: cisplatin alone (lipofectamine only / control cells). The method, then:
A2780-CP70 cells were transfected with 0.07 μg/well anti-Gli1 shRNA construct or control. Transfected cells were treated with 0 μM, 10 μM, 30 μM, and 100 μM cisplatin at 24 hr post-transfection. Percent cell growth was determined relative to control cells. […] In another experiment, A2780-CP70 cells were transfected with 0.02 μg/well or 0.07 μg/well anti-Gli1 shRNA construct. Transfected cells were treated with 0 μM, 2 μM, 5 μM, 10 μM, 30 μM, and 50 μM cisplatin at 24 hr post-transfection. Percent cell growth was determined relative to control cells (FIG. 52B).
Control cells were treated with cisplatin only. Percent cell growth was determined relative to control cells.

In series [5] the test system is A2780-CP70 cells. The note with it: cisplatin-resistant A2780-CP70; cited from earlier work.
The subject of series [6] is c-jun (Ser 63, Ser 73, Thr 91, Thr 93). As to the kind of experiment: c-jun protein phosphorylation, Western blot, A2780-CP70 cells. Type of series: cell-based, human. The note with it: 72 hr observation. The method, then: Protein levels for c-jun, c-fos, phosphorylated c-jun (Ser 63), phosphorylated c-jun (Ser 73), and phosphorylated c-jun (Thr 91, Thr 93) were tested in cytosolic, nuclear, and whole cell fractions at 0 hr, 6 hr, 24 hr, 48 hr, and 72 hr. Internal controls for cytosolic and nuclear fractions included α-tubulin and histone deacetylase 3.
Phosphorylation of c-jun in A2780-CP70 cells transfected with anti-GLI1 shRNA construct was assessed using Western blot analysis. Protein levels for c-jun, phosphorylated c-jun (Ser 63), phosphorylated c-jun (Ser 73), and phosphorylated c-jun (Thr 91, Thr 93) were examined at 0 hr, 6 hr, 24 hr, 48 hr, and 72 hr.
A2780-CP70 cells were treated with an IC50 dose of cisplatin and an IC50 dose of anti-Gli1 shRNA.

The next series concerns c-jun. The series is described as follows: c-jun mRNA (semi-quantitative PCR) and protein (Western blot) in A2780-CP70 cells. Type of series: cell-based, human. The note with it: A2780-CP70. The method, then:
Controls included α-tubulin and histone deacetylase 3. C-jun antibody recognizes non-phosphorylated c-jun protein.
c-jun and c-fos mRNA expression was examined in A2780-CP70 cells transfected with anti-GLI1 shRNA construct at 6 hr, 24 hr, 48 hr, and 72 hr post-transfection using semi-quantative PCR analysis (FIG. 41).
A2780-CP70 cells were transfected with an IC50 dose of anti-Gli1 shRNA (treated) construct or vector (control). Total intracellular c-jun mRNA and c-jun protein was measured at 6 hr, 24 hr, 48 hr, and 72 hr.
C-jun mRNA and protein levels were further examined in cisplatin-resistant A2780-CP70 cells treated with an IC50 dose of anti-Gli1 shRNA. FIG. 78 depicts mRNA levels (panel A) and protein levels (panel B) in cells at 6, 24, 48, and 72 hours post-treatment.

For series [7], the system named is c-jun (Ser 63, Ser 73, Thr 91, Thr 93). To be noted: A2780-CP70; 3-5 hr after cisplatin treatment; cited from earlier work.
Series [8] deals with ERCC1, XPD, XRCC1. The note with it: cells treated with cisplatin only; cited from earlier work.

As for “OPN: recombinant human osteopontin (R & D Systems)”, the “numbers of TRAP stained multinucleate cells” value with RAW264.7 cells [1] is “significant (p<0.005) increase”. Also, the “osteoclast activity (area resorbed)” value in the series with RAW264.7 cells [2] is “notably enhances (p<0.001) osteoclast activity”.

“GLI1 shRNA-2: shRNA construct targeting GLI1 mRNA sequence TCATCAACTCGCGATGCAC, position 325 (target site or template, no part of the molecule)”: the GLI1 silencing result with Gli1 (shRNA cloned into pSUPERIOR) was “effective at silencing GLI1; also recorded: more effective GLI1 silencing”. In addition, in the series on Gli1 (shRNA-transfected cells), the OPN expression result was “decreased OPN expression”.

Usually IC50 stands for the concentration needed to halve the response being measured. Consider `N.N.[Cl][Pt][Cl]` [cisplatin], for which the “time of highest ERCC1, XPD, XRCC1 mRNA levels after cisplatin exposure” value in the series on ERCC1, XPD, XRCC1 [3] (A2780-CP70, cyclopamine pretreatment vs cisplatin alone) fell in the range of 4 to 6 h. Also, the “increase of ERCC1, XPD, and XRCC1 protein expression levels” value with ERCC1, XPD, XRCC1 [3] (cells treated with cisplatin) is reported as 5 fold. In addition, the “expected rise of ERCC1 (as would XPD and XRCC1)” value with ERCC1, XPD, XRCC1 [3] (cisplatin alone (unpublished data)) is given as “more than 6 fold”. In addition, the IC50 with A2780-CP70 cells [4] was 30 µM and 28 µM. Further, the half-inhibitory concentration (IC50) in the series on A2780-CP70 cells [5] was around 40 µM. Besides, in [6], the “c-jun phosphorylation at Ser63” value was “increases specifically at Ser63 and Ser73”; the “c-jun phosphorylation at Thr91/93” value was “do not change significantly; also recorded: did not significantly change”. Moreover, the “time of peak c-jun level” value in the series on c-jun (IC50 dose of agent) came out at 6 h. In the series with c-jun (IC50 dose of cisplatin), the c-jun protein expression entry was “increased substantial”. The “peak c-jun phosphorylation over baseline” value in series [7] was 15 fold. For the same molecule, the “expected increase in ERCC1 mRNA levels” value with ERCC1, XPD, XRCC1 [8] was 6 fold.
